Values of other authors, collected in patent US20080161587A1, “Crystallization method for purification of calcipotriene” (Teva Pharmaceuticals USA, Inc., priority 2002, published 2008).

For C=C1/C(=C\C=C2/CCC[C@]3(C)[C@@H]([C@H](C)/C=C/[C@@H](O)C4CC4)CC[C@@H]23)C[C@@H](O)C[C@@H]1O [calcipotriene, (5Z, 7E, 22E, 24S)-24-cyclopropyl-9,10-secochola-5,7,10(19), 22-tetraene-1α, 3β, 24-triol], the “solubility in highly apolar solvents” value (highly a polar solvents (e.g. hydrocarbons)) is given as “essentially insoluble”, the “solubility in alcoholic solvents” value (methanol, ethanol, and isopropanol (IPA)) is given as “highly soluble” and the “solubility of calcipotriene in methyl formate” value (solvent methyl formate) is given as “about 1 g calcipotriene/150 mL of methyl formate”.
